According to patent publication US5955325A, “Method for producing sulfated lactosamine oligosaccharide” (Seikagaku Kogyo Kabushiki Kaisha, priority 1996, dated 1999):
“Also recorded” adds a separate entry of the source. Each block holds one molecule with its values, some of them ahead of it.

Assays:
[1] = system: chondroitin 6-sulfotransferase; assay: Transfer reaction of sulfate group (35SO4) to lactosamine oligosaccharides by purified sulfotransferase; type: biochemical, chick; conditions: for Incorporation of 35S: 0.025 μmol oligosaccharide acceptor, 25 pmol [35S]PAPS, 0.09 μg purified C6ST, 37° C., 60 minutes, pH 6.8; for Incorporation (transfer) of sulfate group into the oligosaccharide, in words: acceptor for chondroitin 6-sulfotransferase, Superdex 30 gel filtration, 35S radioactivity
Experimental: Specifically, the transfer reaction of sulfate group (^35 SO4 was used as sulfate group in order to confirm sulfation) to various lactosamine oligosaccharides by using sulfotransferase was performed in accordance with the following method. A standard reaction mixture was a solution containing 2.5 μmol of imidazole-HCl (pH 6.8), 0.25 μmol of CaCl2, 0.1 μmol of dithiothreitol, 0.025 μmol of various lactosamine oligosaccharides, 25 pmol of [^35 S]PAPS (about 2.5×10^5 cpm), and 0.09 μg of purified chondroitin 6-sulfotransferase in a final volume of 50 μl. The reaction mixture was subjected to the reaction at 37° C. for 60 minutes in a reaction tube. The reaction was terminated by immersing the reaction tube in boiling water for 1 minute. After the termination of the reaction, lactosamine oligosaccharide (sulfated lactosamine oligosaccharide) to which ^35 SO4 had been transferred was separated from free ^35 SO4 and [^35 S]PAPS by means of gel filtration chromatography. A fraction (1 ml) was collected to measure the radioactivity.
The retention time of the sulfated lactosamine oligosaccharide was faster by 2 to 3 minutes than the retention time (indicated by arrows shown in FIG. 1) of the lactosamine oligosaccharide used (lactosamine oligosaccharide before sulfation (acceptor)). […] A peak of sulfated LN partially overlapped with those of free ^35 SO4 and [^35 S]PAPS. A radioactivity peak (indicated by a horizontal bar in FIG. 1A) of a product produced from LN was subjected to paper electrophoresis. As a result, the sulfated LN was separated from ^35 SO4 and [^35 S]PAPS. Therefore, incorporation of sulfate group (^35 SO4) into LN was calculated after the paper electrophoresis.

[2] = system: chondroitin 6-sulfotransferase (C6ST); assay: Sulfotransferase activity measured with various glycosaminoglycan substrates and activators; type: biochemical, chick; conditions: for Transfer of sulfate group to glycosaminoglycan substrate by C6ST, in words: 25 nmol glycosaminoglycan, [35S]PAPS, 37° C., 20 minutes
Experimental: In the purification steps, the sulfotransferase activity was measured as follows. The reaction solution had the following composition.
The activity was measured for various glycosaminoglycans as the substrate, by using 25 nmol of glycosaminoglycans (as an amount of galactosamine for chondroitin sulfate and dermatan sulfate, or as an amount of glucosamine for heparan sulfate and keratan sulfate) in place of chondroitin.
The reaction solution was incubated at 37° C. for 20 minutes in a reaction tube, and then the reaction was terminated by immersing the reaction tube in boiling water for 1 minute. After the termination of the reaction, 0.1 μmol of chondroitin sulfate A (as an amount of glucuronic acid) was added as a carrier, and three volumes of ethanol containing 1.3% potassium acetate was added thereto to precipitate ^35 S-labeled polysaccharide. The mixture was centrifuged at 10,000× g for 10 minutes to obtain a precipitate which was then dissolved in 70 μl of water. An aliquot (50 μl) of the obtained solution was injected into a desalting column equilibrated with 0.1 M NH4 HCO3, and eluted fractions containing the ^35 S-labeled polysaccharide were collected. To an aliquot (200 μl) of an obtained collected fraction, 1 ml of a scintillation cocktail (Clearsol, produced by nacalai tesque) was added to measure ^35 S-radioactivity. Thus incorporation of ^35 S into the polysaccharide was measured.
An aliquot (400 μl) was dispensed from the residual solution, to which 800 μl of ethanol containing 1.3% potassium acetate was added, followed by mixing. The mixture was placed on ice for 30 minutes, followed by centrifugation at 10,000× g for 10 minutes to precipitate the ^35 S-labeled polysaccharide. The precipitate was dissolved in 25 μl of a buffer containing 0.1 mg/ml of BSA, 0.05 M Tris-acetate, pH 7.5, and 10 milliunits of chondroitinase ACII (originating from Arthrobacter aurescens, produced by Seikagaku Corporation) to perform a reaction at 37° C. for 2 hours. The solution after the reaction was spotted onto Whatman No. 1 filter paper together with 2-acetamido-2-deoxy-3-O-(β-D-gluco-4-enopyranosyluronic acid)-6-O-sulfo-D-galactose (ΔDi-6S) and 2-acetamido-2-deoxy-3-O-(β-D-gluco-4-enopyranosyluronic acid)-4-O-sulfo-D-galactose (ΔDi-4S) (each 0.1 μmol, each produced by Seikagaku Corporation), followed by development for 20 hours with 1-butanol/acetic acid/1 M ammonium hydroxide (2:3:1 (V/V/V)).
(§1) Positions of ΔDi-6S and ΔDi-4S were inspected by using an ultraviolet lamp respectively. Portions corresponding to them were excised from the filter paper respectively, and were then placed in a scintillator prepared by dissolving 5 g of diphenyloxazole and 0.25 g of dimethyl-1,4-bis(2-(5-phenyloxazole))benzene in 1 L of toluene to measure radioactivity. […] According to incorporation of ^35 S into ΔDi-6S and ΔDi-4S, activities of chondroitin 6-sulfotransferase and chondroitin 4-sulfotransferase were calculated respectively. The activity to catalyze transfer of 1 pmol sulfate group/minute was defined as 1 unit.

[3] = Specific activity of purified chondroitin 6-sulfotransferase (35S incorporation into ΔDi-6S and ΔDi-4S); type: biochemical; conditions: chondroitin substrate
Experimental: In the purification steps, the sulfotransferase activity was measured as follows. The reaction solution had the following composition. Namely, the reaction solution (50 μl) contained 2.5 μmol of imidazol-HCl, pH 6.8, 1.25 μg of protamine hydrochloride, 0.1 μmol of dithiothreitol,25 nmol (as an amount of glucuronic acid) of chondroitin (produced by Seikagaku Corporation), 50 pmol of [^35 S]PAPS (adenosine 3'-phosphate, 5'-phosphosulfate), and the enzyme.
The reaction solution was incubated at 37° C. for 20 minutes in a reaction tube, and then the reaction was terminated by immersing the reaction tube in boiling water for 1 minute. […] To an aliquot (200 μl) of an obtained collected fraction, 1 ml of a scintillation cocktail (Clearsol, produced by nacalai tesque) was added to measure ^35 S-radioactivity. Thus incorporation of ^35 S into the polysaccharide was measured. […]
as §1, with “The activity to catalyze transfer of 1 pmol sulfate group/minute was defined as 1 unit.” left out

Molecule: CC(=O)N[C@H]1C(O)O[C@H](CO)[C@@H](O[C@@H]2O[C@H](CO)[C@H](O)[C@H](O)[C@H]2O)[C@@H]1O (stereo partly shown) [LN, Galβ1--4GlcNAc]
Incorporation of 35S [1]: 0.012 pmol/minute/μg protein | Incorporation (transfer) of sulfate group into the oligosaccharide, in words [1]: observed

Molecule: CC(=O)NC1C(O)OC(CO)C(OC2OC(CO)C(O)C(OC3(C(=O)O)CC(O)C(NC(C)=O)C(C(O)C(O)CO)O3)C2O)C1O (stereo not shown) [SLN, NeuAcα2--3Galβ1--4GlcNAc]
Incorporation of 35S [1]: 0.022 pmol/minute/μg protein | Incorporation (transfer) of sulfate group into the oligosaccharide, in words [1]: observed

Molecule: keratan sulfate
Transfer of sulfate group to glycosaminoglycan substrate by C6ST, in words [2]: transfers the sulfate group

Molecule: heparan sulfate
Transfer of sulfate group to glycosaminoglycan substrate by C6ST, in words [2]: only scarcely transferred

Molecule: CC(=O)NC1C(O)OC(CO)C(OC2OC(CO)C(O)C(OC3OC(CO)C(OC4OC(CO)C(O)C(OC5(C(=O)O)CC(O)C(NC(C)=O)C(C(O)C(O)CO)O5)C4O)C(O)C3NC(C)=O)C2O)C1O (stereo not shown) [SL1L1, NeuAcα2--3Galβ1--4GlcNAcβ1--3Galβ1--4GlcNAc]
Incorporation of 35S [1]: 0.034 pmol/minute/μg protein | Incorporation (transfer) of sulfate group into the oligosaccharide, in words [1]: observed

Molecule: [Cl][Mn][Cl] [MnCl2]
Effect on the activity of C6ST [2]: increased

Molecule: dermatan sulfate
Transfer of sulfate group to glycosaminoglycan substrate by C6ST, in words [2]: only scarcely transferred

Molecule: CC(=O)NC1C(O)CC(OC2C(O)C(CO)OC(OC3C(CO)OC(O)C(NC(C)=O)C3OC3OC(C)C(O)C(O)C3O)C2O)(C(=O)O)OC1C(O)C(O)CO (stereo not shown) [SLe^x, NeuAcα2--3Galβ1--4(Fucα1-3)GlcNAc]
Incorporation (transfer) of sulfate group into the oligosaccharide, in words [1]: no radioactivity was detected; also recorded: not detected

Molecule: chondroitin sulfate A
Transfer of sulfate group to glycosaminoglycan substrate by C6ST, in words [2]: transfers the sulfate group

More lines, main results first:

Incorporation of 35S [1]: 0.29 pmol/minute/μg protein | Incorporation (transfer) of sulfate group into the oligosaccharide, in words [1]: observed
Molecule: CC(=O)N[C@H]1[C@H](O[C@H]2[C@@H](O)[C@@H](COS(=O)(=O)O)O[C@@H](O[C@H]3[C@H](O)[C@@H](NC(C)=O)C(O)O[C@@H]3COS(=O)(=O)O)[C@@H]2O)O[C@H](COS(=O)(=O)O)[C@@H](O[C@@H]2O[C@H](CO)[C@H](O)[C@H](O)[C@H]2O)[C@@H]1O (stereo partly drawn) [L2L4, Galβ1--4GlcNAc(6S)β1--3Gal(6S)β1--4GlcNAc(6S)]

Transfer of sulfate group to glycosaminoglycan substrate by C6ST, in words [2]: transfers the sulfate group
Molecule: chondroitin

Transfer of sulfate group to glycosaminoglycan substrate by C6ST, in words [2]: transfers the sulfate group
Molecule: chondroitin sulfate

Incorporation of 35S [1]: 0.031 pmol/minute/μg protein | Incorporation (transfer) of sulfate group into the oligosaccharide, in words [1]: observed
Molecule: CC(=O)N[C@H]1[C@H](O[C@H]2[C@@H](O)[C@@H](CO)O[C@@H](O[C@H]3[C@H](O)[C@@H](NC(C)=O)C(O)O[C@@H]3CO)[C@@H]2O)O[C@H](CO)[C@@H](O[C@@H]2O[C@H](CO)[C@H](O)[C@H](O)[C@H]2O)[C@@H]1O (stereo partly shown) [L1L1, Galβ1--4GlcNAcβ1--3Galβ1--4GlcNAc]

Effect on the activity of C6ST [2]: increased
Molecule: protamine

Transfer of sulfate group to glycosaminoglycan substrate by C6ST, in words [2]: transfers the sulfate group
Molecule: chondroitin sulfate C

Transfer of sulfate group to glycosaminoglycan substrate by C6ST, in words [2]: only scarcely transferred
Molecule: chondroitin sulfate E

Incorporation of 35S [1]: 0.48 pmol/minute/μg protein | Incorporation (transfer) of sulfate group into the oligosaccharide, in words [1]: observed
Molecule: CC(=O)NC1C(O)OC(COS(=O)(=O)O)C(OC2OC(COS(=O)(=O)O)C(O)C(OC3OC(COS(=O)(=O)O)C(OC4OC(CO)C(O)C(OC5(C(=O)O)CC(O)C(NC(C)=O)C(C(O)C(O)CO)O5)C4O)C(O)C3NC(C)=O)C2O)C1O [SL2L4, NeuAcα2--3Galβ1--4GlcNAc(6S)β1--3Gal(6S)β1--4GlcNAc(6S)]

Ratio of activities of chondroitin 4-sulfotransferase/chondroitin 6-sulfotransferase ([3]; purified enzyme): 0.02
B1: chondroitin 6-sulfotransferase: sulfotransferase purified from serum-free culture medium of chick chondrocyte (protein, UniProt Q92179 1-458, looked up)
Carbohydrate sulfotransferase …: MERRSALPQDFREVLHCLKMRSKYAVLLVFVVGLVIIEKENNFISRVSDKLKQSPQVLPEANETEASPVQAENGSLASLRQLDTAFSQLRTRLRNVTLQLAGELGIAAPEPRRHVLLMATTRTGSSFVGEFFNQQGNIFYLFEPLWHIERTVTFEPGGANAVGSALVYRDVLQQLLLCDLYILESFISPAPEEHLTAALFRRGSSHSLCEEPVCTPSLKKVFEKYHCKNRRCGPLNITLAAEACRRKQHMALKTVRIRQLEFLQPLAEDPRLDLRIIQLVRDPRAVLVSRMVAFSGKYESWKKWAAEGEAPLQEDEVQRLRGNCESIRLSAELGLRQPRWLRGRYMLVRYEDVARAPLRKALEMYRFAGIHPTPQVEEWIRANTQAPQDSNGIYSTQKNSSEQFEKWRFSIPFKLAQVVQDACEPAMRLFGYKLASSAQELTNRSLSLLEEGPPTRIT
Specific activity of chondroitin 6-sulfotransferase ([3]; 1 unit = transfer of 1 pmol sulfate group/minute): 4.3×10^5 units/mg
